We go through one molecule from patent US20040072862A1, “Compositions for treating ischemia-related neuronal damage” (priority 1999, published 2004).

For orientation: EC50 means the concentration that produces a half-maximal response. The low end stands for higher potency in that assay, the high end for lower potency in that assay.

A value given as a limit tells only on which side of the number the result lay.

In data set [1] the test system is Oxygen/Glucose Deprived RGCs. Kind of data set: Protection of oxygen/glucose deprived (OGD) retinal ganglion cells, EC50. Type of data set: cell-based, Sprague-Dawley rat. The note with it: Rattus norvegicus; compound added from 30 min prior to OGD, during OGD, and 24 and 48 h after OGD. How it is done: (§1) Untreated OGD cells were also included as controls.
(§2) The tissue was then disrupted sequentially with a 1 ml pipette, in a solution containing ovomucoid (Boehringer-Mannheim), DNase (Sigma), and bovine serum albumin (BSA; Sigma) to yield a single cell suspension. The cells were then washed in a suspension of ovomucoid/BSA.

The subject of data set [2] is OGD cells (retinal ganglion cells). Description: Increase in survival of OGD cells, dose-dependent data. Type of data set: cell-based, Sprague-Dawley rat. How it is done: as §1, §2

Take `Oc1cccc2nc(Cc3nc4ccccc4[nH]3)[nH]c12` [SNX-926, 2-(benzimidazol-2-ylmethyl)benzimidazol-7-ol]: the response in data set [1] was half-maximal at 40 nM (EC50). Moreover, the activation at 0.001 µM in data set [2] (Rattus norvegicus, 0.001 μM, read-out: Percent Increase in Survival over OGD Control Cells) is under 50%. Besides, the activation at 0.01 µM in data set [2] (Rattus norvegicus, 0.01 μM, read-out: Percent Increase in Survival over OGD Control Cells) fell in the range of 50 to 100%. The activation at 0.1 µM in data set [2] (Rattus norvegicus, 0.1 μM, read-out: Percent Increase in Survival over OGD Control Cells) is over 100%. Also, the activation at 1 µM in data set [2] (Rattus norvegicus, 1 μM, read-out: Percent Increase in Survival over OGD Control Cells) is over 100%. The activation at 10 µM in data set [2] (Rattus norvegicus, 10 μM, read-out: Percent Increase in Survival over OGD Control Cells) was 50 to 100%. Further, the “TI (therapeutic index)” value in data set [2] (rat, retinal ganglion cells) is over 250.
